Assay results: patent US20220211796A1, “PEPTIDE ANTIBIOTICS AND METHODS OF USE THEREOF” (priority 2019, published 2022)
Converted amounts (≈) assume the structure as drawn. Numbered stars: 1 amine (or outer) side, 2 acyl side, 3 side chain; on linkers, the order of the positions; unused ones are H or OH. Bridge positions count the residues as written; N and C are the ends. Square brackets hold non-standard residues; d marks the D form. Peptide text beside a SMILES is read from it. TBMB = c1c(C[*:1])cc(C[*:3])cc1C[*:2]

Columns and labels:
Assay in all cases: microbe, parasite or virus in culture
[1] = test system: low level vancomycin resistant E. faecium (vanB) ATCC 51299
Experimental: (§1) The L-peptides identified from five different phage display libraries were catalogued as described previously and selected sequences were synthesized in D-enantiomeric form by SPPS for further investigation in several biological assays.
(§2) MICs were determined according to a 96-well microdilution protocol outlined by the Clinical and Laboratory Standard Institute (CLSI) guideline with modifications for peptide antibiotics reported by Wiegand et al.^35 Two-fold serial peptide dilutions were performed to go from 2560 μg/ml to 5 μg/ml in0.2% BSA and 0.01% acetic acid buffer in 96-well polypropylene plates (COSTAR, #3879). Dilution of bacterial suspensions (1:200) of different bacterial strains that were grown until 0.5 McFarland standard were prepared to obtain a final inoculum concentration of 8×10^5 CFU/ml in Mueller-Hinton broth.

[2] = test system: Methicillin-resistant S. aureus (MRSA) ATCC 43300
Experimental: as §1, §2

B. subtilis ATCC 6633 = test system: B. subtilis ATCC 6633
Experimental: as §1, §2

[3] = test system: high level vancomycin resistant E. faecium (vanA) ATCC 51559
Experimental: as §1, §2

S. aureus ATCC 6538 = test system: S. aureus ATCC 6538
Experimental: as §1, §2

E. coli ATCC 25992 = test system: E. coli ATCC 25992
Experimental: as §1, §2

E. faecalis ATCC 29121 = test system: E. faecalis ATCC 29121
Experimental: as §1, §2

[4] = Table 5, low level vancomycin resistant E. faecium ATCC 51299
[5] = Table 6, low level vancomycin resistant E. faecium ATCC51299
[6] = Table 6, high level vancomycin resistant E. faecium ATCC51559

Compound | MIC VRE (vanB) [1, 4] [µg/mL] | MIC MRSA ([2]; ATCC 43300) [µg/mL] | MIC B. subtilis (B. subtilis ATCC 6633; ATCC 6633) [µg/mL] | MIC VRE (vanA) ([3]; ATCC 51559) [µg/mL] | MIC S. aureus (S. aureus ATCC 6538; ATCC 6538) [µg/mL] | MIC E. coli (E. coli ATCC 25992; ATCC 25992) [µg/mL] | MIC E. faecalis (E. faecalis ATCC 29121; ATCC 29121) [µg/mL] | MIC VRE (vanB) [1, 5] [µg/mL] | MIC MRSA ([2]; Table 6, MRSA ATCC43300) [µg/mL] | MIC B. subtilis (B. subtilis ATCC 6633; Table 6, B. subtilis ATCC6633) [µg/mL] | MIC VRE (vanA) [3, 6] [µg/mL] | MIC S. aureus (S. aureus ATCC 6538; Table 6, S. aureus ATCC6538) [µg/mL] | MIC E. coli (E. coli ATCC 25992; Table 6, E. Coli ATCC25992) [µg/mL] | MIC E. faecalis (E. faecalis ATCC 29121; Table 6, E. faecalis ATCC29121) [µg/mL]
CC[C@@H](C)[C@H]1NC(=O)[C@@H](CC(N)=O)NC(=O)[C@@H](CC(=O)O)NC(=O)[C@H](N)CSSC[C@H](C(N)=O)NC(=O)[C@@H](C(C)C)NC(=O)[C@H]2CCCN2C(=O)[C@@H]([C@H](C)O)NC(=O)[C@@H](CCSC)NC1=O [P13, CDNIMTPVC] (H-[dC][dD][dN][dI][dM][dT][dP][dV][dC]-NH2; disulfide 1-9) | >256 | 64 (≈ 64.5 µM) | 64 (≈ 64.5 µM) | >256 | 64 (≈ 64.5 µM) | >256 | 128 (≈ 129 µM) |  |  |  |  |  |  | 
CSCC[C@H]1NC(=O)[C@@H](CC(=O)O)NC(=O)[C@H]2CSCc3cc(cc(c3)CSC[C@H](C(N)=O)NC(=O)[C@@H](Cc3c[nH]cn3)NC(=O)[C@@H](CC(C)C)NC1=O)CSC[C@@H](N)C(=O)N[C@H](CCC(N)=O)C(=O)N[C@H](Cc1ccc(O)cc1)C(=O)N[C@H](CC(N)=O)C(=O)N[C@H](CC(=O)O)C(=O)N2 [P16, COYNDCDMLHC] (H-[dC][dQ][dY][dN][dD][dC][dD][dM][dL][dH][dC]-NH2; linker 1-6-11 via TBMB) |  |  |  |  |  |  |  | >256 | 128 (≈ 87.8 µM) | 64 (≈ 43.9 µM) | >256 | 64 (≈ 43.9 µM) | >256 | 128 (≈ 87.8 µM)
CC(C)[C@H]1NC(=O)CNC(=O)[C@@H](Cc2ccccc2)NC(=O)[C@H]2CSCc3cc(cc(c3)CSC[C@H](C(N)=O)NC(=O)[C@@H](CO)NC(=O)[C@@H](CCC(N)=O)NC1=O)CSC[C@@H](N)C(=O)NCC(=O)N[C@H](C)C(=O)N[C@H](CCC(N)=O)C(=O)NCC(=O)N2 [P20, CGAQGCFGVQSC] (H-[dC]G[dA][dQ]G[dC][dF]G[dV][dQ][dS][dC]-NH2; linker 1-6-12 via TBMB) |  |  |  |  |  |  |  | 256 (≈ 201 µM) | 256 (≈ 201 µM) | 32 (≈ 25.1 µM) | >256 | 32 (≈ 25.1 µM) | >256 | 256 (≈ 201 µM)
CC(C)C[C@@H](NC(=O)[C@@H](Cc1ccccc1)NC(=O)CNC(=O)[C@H](N)[C@H](C)O)C(=O)N[C@@H](C(=O)N[C@H](CC(N)=O)C(=O)N[C@@H](C(N)=O)C(C)C)C(C)C [P7, TGFLVNV] (H-[dT]G[dF][dL][dV][dN][dV]-NH2) | >256 | >256 | 32 (≈ 42.8 µM) | >256 | 64 (≈ 85.6 µM) | >256 | >256 |  |  |  |  |  |  | 
CC[C@@H](C)[C@H]1NC(=O)[C@@H](CO)NC(=O)[C@H](N)CSSC[C@H](C(N)=O)NC(=O)[C@@H](Cc2c[nH]cn2)NC(=O)[C@@H]([C@H](C)O)NC(=O)[C@@H](CC(C)C)NC(=O)[C@@H](CO)NC(=O)[C@@H](CO)NC1=O [P11, CSISSLTHC] (H-[dC][dS][dI][dS][dS][dL][dT][dH][dC]-NH2; disulfide 1-9) | 64 (≈ 67.6 µM) | 64 (≈ 67.6 µM) | 32 (≈ 33.8 µM) | >256 | 32 (≈ 33.8 µM) | >256 | 32 (≈ 33.8 µM) |  |  |  |  |  |  | 
